Experimental findings from US20260265189A1, “NOVEL COMPOUND, AND PHARMACEUTICAL COMPOSITION COMPRISING SAME AS ACTIVE INGREDIENT” (SAPIENSBIO INC., priority 2022, published 2026) are described below.

Molecules are shown by their SMILES.

The assay concerns α-SMA expression in MRC5 cells. Kind of assay: inhibition of α-SMA expression in MRC5 cells, image screening method. The following applies: Homo sapiens; MRC5, compound 10 μM, TGF-β1 5 ng/mL, 72 hours, relative to TGF-β1 alone; read-out: Inhibitory activity (α-SMA expression inhibition). It is filed as cell-based. As for the experimental part: The ability of the compounds according to the present invention to inhibit the expression of α-SMA, which is a biomarker for pulmonary fibrosis, was evaluated by an image screening method. MRC5 cells were treated with the compound (10 μM) or DMSO under the condition of TGF-31 (5 ng/mL). 72 hours later, the cells were fixed with a 4% formaldehyde solution, treated with a 0.1% Triton-x100 solution, and treated with a 1% BSA solution to mask non-specific binding caused by antibodies. Anti-α-SMA-FITC (Sigma Aldrich) and anti-GAPDH (Cell Signaling Technology) were used as primary antibodies, and anti-mouse-TRITC was used as a secondary antibody. Imaging and analysis of the results were performed using Cytation5_Gen5_Version 3.12.08 (Bio Tek). Relative to the α-SMA expression level when TGF-31 was treated alone, the α-SMA expression level when both the compound and TGF-31 were treated was calculated as the ability of α-SMA expression inhibition of the corresponding compound.

By inhibition is commonly meant the share of the control response that was lost under treatment. For the molecule `CC(C)(C)CC(=O)N1CCN(C(=O)NC[C@@H]2CCNC2)c2ccccc21` [Compound 129, (R)-4-(3,3-dimethylbutanoyl)-N-(pyrrolidin-3-ylmethyl)-3,4-dihydroquinoxaline-1(2H)-carboxamide], the inhibition at 10 µM was in the range of 10 to 30%.
On to `O=C(N[C@@H]1CCOC1)N1CCN(Cc2ccccn2)c2ccccc21` [Compound 98, (R)-4-(pyridin-2-ylmethyl)-N-(tetrahydrofuran-3-yl)-3,4-dihydroquinoxaline-1(2H)-carboxamide], for which the inhibition at 10 µM fell in the range of 30 to 50%.
For the molecule `CC(=O)N1CC[C@@H](NC(=O)N2CCN(c3ccc(F)cc3)c3cc(F)ccc32)C1` [Compound 6, (R)-N-(1-acetylpyrrolidin-3-yl)-6-fluoro-4-(4-fluorophenyl)-3,4-dihydroquinoxaline-1(2H)-carboxamide], the inhibition at 10 µM was 10 to 30%.
For `O=C(NC1CNC1)N1CCN(c2ccc(F)cc2)c2cc(F)ccc21` [Compound 41, N-(azetidin-3-yl)-6-fluoro-4-(4-fluorophenyl)-3,4-dihydroquinoxaline-1(2H)-carboxamide], the inhibition at 10 µM fell in the range of 30 to 50%.
As to `O=C(NC[C@H]1CCNC1)N1CCN(c2ccc(F)cc2)c2ccccc21` [Compound 53, (S)-4-(4-fluorophenyl)-N-(pyrrolidin-3-ylmethyl)-3,4-dihydroquinoxaline-1(2H)-carboxamide], the inhibition at 10 µM is 10 to 30%.
`CN1CCN(C(=O)N2CCN(c3ccccc3Cl)c3ccccc32)CC1` [Compound 68, (4-(2-chlorophenyl)-3,4-dihydroquinoxalin-1(2H)-yl)(4-methylpiperazin-1-yl)methanone]: the inhibition at 10 µM lay within 30 to 50%.
For `O=C(NCC1CCOC1)N1CCN(c2ccc(F)cc2)c2cc(F)ccc21` (stereo not shown) [Compound 48, 6-fluoro-4-(4-fluorophenyl)-N-((tetrahydrofuran-3-yl)methyl)-3,4-dihydroquinoxaline-1(2H)-carboxamide], the inhibition at 10 µM lay in the range of 10 to 30%.
Consider `COC1CCN(C(=O)N2CCN(c3ccc(F)cc3)c3cc(F)ccc32)C1` (stereo not shown) [Compound 40, (6-fluoro-4-(4-fluorophenyl)-3,4-dihydroquinoxalin-1(2H)-yl)(3-methoxypyrrolidin-1-yl)methanone], for which the inhibition at 10 µM was 10 to 30%.
With `CN1CCC(NC(=O)N2CCN(c3ccc(F)cc3)c3cc(F)ccc32)CC1` [Compound 30, 6-fluoro-4-(4-fluorophenyl)-N-(1-methylpiperidin-4-yl)-3,4-dihydroquinoxaline-1(2H)-carboxamide], the inhibition at 10 µM lay within 50 to 70%.
Take `O=C(NCC1CCOC1)N1CCN(Cc2ccccn2)c2ccccc21` (stereo not shown) [Compound 100, 4-(pyridin-2-ylmethyl)-N-((tetrahydrofuran-3-yl)methyl)-3,4-dihydroquinoxaline-1(2H)-carboxamide]: the inhibition at 10 µM fell in the range of 30 to 50%.
For `CC(C)N1CC[C@H](NC(=O)N2CCN(c3ccc(F)cc3)c3cc(F)ccc32)C1` [Compound 10, (S)-6-fluoro-4-(4-fluorophenyl)-N-(1-isopropylpyrrolidin-3-yl)-3,4-dihydroquinoxaline-1(2H)-carboxamide], the inhibition at 10 µM was at least 70%.
As to `O=C(NC1CCNCC1)N1CCN(c2ccc(F)cc2)c2cc(F)ccc21` [Compound 29, 6-fluoro-4-(4-fluorophenyl)-N-(piperidin-4-yl)-3,4-dihydroquinoxaline-1(2H)-carboxamide], the inhibition at 10 µM lay within 50 to 70%.
As to `O=C(N[C@@H]1CCNC1)N1CCN(c2ccc(F)cc2)c2cc(F)ccc21` [Compound 1, (R)-6-fluoro-4-(4-fluorophenyl)-N-(pyrrolidin-3-yl)-3,4-dihydroquinoxaline-1(2H)-carboxamide], the inhibition at 10 µM was at least 70%.
For `CC(C)CN1CC[C@@H](NC(=O)N2CCN(c3ccc(F)cc3)c3cc(F)ccc32)C1` [Compound 4, (R)-6-fluoro-4-(4-fluorophenyl)-N-(1-isobutylpyrrolidin-3-yl)-3,4-dihydroquinoxaline-1(2H)-carboxamide], the inhibition at 10 µM was at least 70%.
With `N[C@H]1CCN(C(=O)N2CCN(Cc3ccccc3)c3ccccc32)C1` [Compound 85, (S)-(3-aminopyrrolidin-1-yl)(4-benzyl-3,4-dihydroquinoxalin-1(2H)-yl)methanone], the inhibition at 10 µM was 30 to 50%.
Consider `CC(C)CN1CC(CNC(=O)N2CCN(c3ccc(F)cc3)c3ccccc32)C1` [Compound 61, 4-(4-fluorophenyl)-N-((1-isobutylazetidin-3-yl)methyl)-3,4-dihydroquinoxaline-1(2H)-carboxamide], for which the inhibition at 10 µM was 50 to 70%.
As to `CC(C)N1CC[C@H](NC(=O)N2CCN(c3cnccn3)c3ccccc32)C1` [Compound 81, (S)-N-(1-isopropylpyrrolidin-3-yl)-4-(pyrazin-2-yl)-3,4-dihydroquinoxaline-1(2H)-carboxamide], the inhibition at 10 µM was in the range of 10 to 30%.
Take `O=C(N[C@@H]1CCNC1)N1CCN(c2ccccc2)c2cc(F)ccc21` [Compound 65, (R)-6-fluoro-4-phenyl-N-(pyrrolidin-3-yl)-3,4-dihydroquinoxaline-1(2H)-carboxamide]: the inhibition at 10 µM was in the range of 30 to 50%.
In the case of `CN1CCC(CNC(=O)N2CCN(c3ccc(F)cc3)c3cc(F)ccc32)CC1` [Compound 34], the inhibition at 10 µM lay within 50 to 70%.
For the molecule `CC(C)CN1CC[C@H](CNC(=O)N2CCN(c3ccc(F)cc3)c3cc(F)ccc32)C1` [Compound 20, (R)-6-fluoro-4-(4-fluorophenyl)-N-((1-isobutylpyrrolidin-3-yl)methyl)-3,4-dihydroquinoxaline-1(2H)-carboxamide], the inhibition at 10 µM is at least 70%.
For `CC(=O)N1CC[C@@H](NC(=O)N2CCN(c3ccccn3)c3ccccc32)C1` [Compound 70, (R)-N-(1-acetylpyrrolidin-3-yl)-4-(pyridin-2-yl)-3,4-dihydroquinoxaline-1(2H)-carboxamide], the inhibition at 10 µM was in the range of 10 to 30%.
In the case of `CN1CCC(CNC(=O)N2CCN(Cc3ccccc3F)c3ccccc32)CC1` [Compound 89, 4-(2-fluorobenzyl)-N-((1-methylpiperidin-4-yl)methyl)-3,4-dihydroquinoxaline-1(2H)-carboxamide], the inhibition at 10 µM fell in the range of 50 to 70%.
As to `CN[C@H]1CCN(C(=O)N2CCN(c3ccc(F)cc3)c3cc(F)ccc32)C1` [Compound 12, (S)-(6-fluoro-4-(4-fluorophenyl)-3,4-dihydroquinoxalin-1(2H)-yl)(3-(methylamino)pyrrolidin-1-yl)methanone], the inhibition at 10 µM was 30 to 50%.
In the case of `O=C(NCC1CCOCC1)N1CCN(Cc2ccccn2)c2ccccc21` [Compound 101, 4-(pyridin-2-ylmethyl)-N-((tetrahydro-2H-pyran-4-yl)methyl)-3,4-dihydroquinoxaline-1(2H)-carboxamide], the inhibition at 10 µM was 30 to 50%.
For the molecule `CC(C)N1CCC(CNC(=O)N2CCN(c3ccc(F)cc3)c3cc(F)ccc32)CC1` [Compound 36, 6-fluoro-4-(4-fluorophenyl)-N-((1-isopropylpiperidin-4-yl)methyl)-3,4-dihydroquinoxaline-1(2H)-carboxamide], the inhibition at 10 µM is 50 to 70%.
`O=C(N[C@H]1CCNC1)N1CCN(c2ccc(F)cc2)c2ccccc21` [Compound 49, (S)-4-(4-fluorophenyl)-N-(pyrrolidin-3-yl)-3,4-dihydroquinoxaline-1(2H)-carboxamide]: the inhibition at 10 µM is 10 to 30%.
With `CC(C)CN1CC[C@@H](NC(=O)N2CCN(C3CCCCC3)c3ccccc32)C1` [Compound 106, (R)-4-cyclohexyl-N-(1-isobutylpyrrolidin-3-yl)-3,4-dihydroquinoxaline-1(2H)-carboxamide], the inhibition at 10 µM lay in the range of 30 to 50%.
Take `CC(C)N1CC[C@H](CNC(=O)N2CCN(c3ccc(F)cc3)c3ccccc32)C1` [Compound 55, (R)-4-(4-fluorophenyl)-N-((1-isopropylpyrrolidin-3-yl)methyl)-3,4-dihydroquinoxaline-1(2H)-carboxamide]: the inhibition at 10 µM fell in the range of 30 to 50%.
In the case of `CC(C)CN1CCC(NC(=O)N2CCN(c3cnccn3)c3ccccc32)CC1` [Compound 82, N-(1-isobutylpiperidin-4-yl)-4-(pyrazin-2-yl)-3,4-dihydroquinoxaline-1(2H)-carboxamide], the inhibition at 10 µM was 10 to 30%.
With `O=C(NC[C@H]1CCCN1)N1CCN(c2ccc(F)cc2)c2ccccc21` [Compound 57, (R)-4-(4-fluorophenyl)-N-(pyrrolidin-2-ylmethyl)-3,4-dihydroquinoxaline-1(2H)-carboxamide] the figure was 30 to 50%.
For the molecule `CC(C)N1CC[C@@H](NC(=O)N2CCN(c3ccc(F)cc3)c3cc(F)ccc32)C1` [Compound 3, (R)-6-fluoro-4-(4-fluorophenyl)-N-(1-isopropylpyrrolidin-3-yl)-3,4-dihydroquinoxaline-1(2H)-carboxamide], the inhibition at 10 µM was at least 70%.
Regarding `CN1CC[C@@H](NC(=O)N2CCN(Cc3ccccc3F)c3ccccc32)C1` [Compound 87, (R)-4-(2-fluorobenzyl)-N-(1-methylpyrrolidin-3-yl)-3,4-dihydroquinoxaline-1(2H)-carboxamide], the inhibition at 10 µM lay in the range of 50 to 70%.
With `O=C(N[C@@H]1CCNC1)N1CCN(Cc2ccccc2)c2ccccc21` [Compound 84, (R)-4-benzyl-N-(pyrrolidin-3-yl)-3,4-dihydroquinoxaline-1(2H)-carboxamide], the inhibition at 10 µM was in the range of 30 to 50%.
In the case of `CC(C)N[C@H]1CCN(C(=O)N2CCN(c3ccc(F)cc3)c3cc(F)ccc32)C1` [Compound 14, (S)-(6-fluoro-4-(4-fluorophenyl)-3,4-dihydroquinoxalin-1(2H)-yl)(3-(isopropylamino)pyrrolidin-1-yl)methanone], the inhibition at 10 µM was in the range of 30 to 50%.
